Measurements from patent US7582645B2, “Pyrimidine derivatives for treatment of hyperproliferative disorders” (Bayer Pharmaceuticals Corporation, priority 2003, dated 2009).

System: HCT116 cells
Test: HCT116 cytotoxic activity assay (Alamar Blue, 72 h)
Assay type: cell-based
Conditions: Homo sapiens, HCT-116, 72 h compound exposure
Experimental: Representative compounds of this invention were tested for cytotoxicity using the above-described assay procedure with the following results: […]

[1] = greater than 500 nM but less than or equal to 2 μM

| SMILES | IC50 (less than or equal to 500 nM) | IC50 [1] | other results |
| --- | --- | --- | --- |
| COc1ncc(-c2cc(Nc3ccc(Oc4ccnc(C#N)c4)cc3)nc(N)n2)c(OC)n1 [Example 237, 4-{4-[(2-amino-2′,4′-dimethoxy-4,5′-bipyrimidin-6-yl)amino]phenoxy} pyridine-2-carbonitrile] |  |  | IC50 (greater than 2 μM): > 2000 nM |
| N#Cc1cc(Oc2ccc(Nc3cc(-c4cccc(N)c4)nc(N)n3)cc2)ccn1 [Example 238, 4-(4-{[2-amino-6-(3-aminophenyl)pyrimidin-4-yl]amino}phenoxy) pyridine-2-carbonitrile] | ≤ 500 nM |  |  |
| N#Cc1cc(Oc2ccc(Nc3cc(-c4cccs4)nc(N)n3)cc2)ccn1 [Example 239, 4-(4-{[2-amino-6-(2-thienyl)pyrimidin-4-yl]amino}phenoxy) pyridine-2-carbonitrile] |  | 500 to 2000 nM |  |
| N#Cc1cc(Oc2ccc(Nc3cc(-c4cccc(F)c4)nc(N)n3)cc2)ccn1 [Example 240, 4-(4-{[2-amino-6-(3-fluorophenyl)pyrimidin-4-yl]amino}phenoxy) pyridine-2-carbonitrile] | ≤ 500 nM |  |  |
| N#Cc1cc(Oc2ccc(Nc3cc(-c4ccccc4F)nc(N)n3)cc2)ccn1 [Example 241, 4-(4-{[2-amino-6-(2-fluorophenyl)pyrimidin-4-yl]amino}phenoxy) pyridine-2-carbonitrile] | ≤ 500 nM |  |  |
| N#Cc1cc(Oc2ccc(Nc3cc(-c4ccc(Cl)cc4)nc(N)n3)cc2)ccn1 [Example 242, 4-(4-{[2-amino-6-(4-chlorophenyl)pyrimidin-4-yl]amino}phenoxy) pyridine-2-carbonitrile] |  | 500 to 2000 nM |  |
| N#Cc1cc(Oc2ccc(Nc3cc(-c4ccccc4N)nc(N)n3)cc2)ccn1 [Example 243, 4-(4-{[2-amino-6-(2-aminophenyl)pyrimidin-4-yl]amino}phenoxy) pyridine-2-carbonitrile] |  | 500 to 2000 nM |  |
| N#Cc1cc(Oc2ccc(Nc3cc(-c4cccc(C(F)(F)F)c4)nc(N)n3)cc2)ccn1 [Example 244, 4-[4-({2-amino-6-[3-(trifluoromethyl)phenyl]pyrimidin-4-yl}amino)phenoxy]pyridine-2-carbonitrile] |  |  | IC50 (greater than 2 μM): > 2000 nM |
| COc1ccc(C(C)C)cc1-c1cc(Nc2ccc(Oc3ccnc(C#N)c3)cc2)nc(N)n1 [Example 245, 4-(4-{[2-amino-6-(5-isopropyl-2-methoxyphenyl)pyrimidin-4-yl]amino}phenoxy)pyridine-2-carbonitrile] |  | 500 to 2000 nM |  |
| Cc1ccccc1-c1cc(Nc2ccc(Oc3ccnc(C#N)c3)cc2)nc(N)n1 [Example 246, 4-(4-{[2-amino-6-(2-methylphenyl)pyrimidin-4-yl]amino}phenoxy) pyridine-2-carbonitrile] | ≤ 500 nM |  |  |
| N#Cc1cc(Oc2ccc(Nc3cc(-c4ccc(F)cc4F)nc(N)n3)cc2)ccn1 [Example 247, 4-(4-{[2-amino-6-(2,4-difluorophenyl)pyrimidin-4-yl]amino}phenoxy)pyridine-2-carbonitrile] |  | 500 to 2000 nM |  |
| N#Cc1cc(Oc2ccc(Nc3cc(-c4cccc(CO)c4)nc(N)n3)cc2)ccn1 [Example 248, 4-[4-({2-amino-6-[3-(hydroxymethyl)phenyl]pyrimidin-4-yl}amino)phenoxy]pyridine-2-carbonitrile] |  | 500 to 2000 nM |  |
| Cc1ccc(-c2cc(Nc3ccc(Oc4ccnc(C#N)c4)cc3)nc(N)n2)cc1 [Example 249, 4-(4-{[2-amino-6-(4-methylphenyl)pyrimidin-4-yl]amino}phenoxy) pyridine-2-carbonitrile] | ≤ 500 nM |  |  |
| Cc1cccc(-c2cc(Nc3ccc(Oc4ccnc(C#N)c4)cc3)nc(N)n2)c1 [Example 250, 4-(4-{[2-amino-6-(3-methylphenyl)pyrimidin-4-yl]amino}phenoxy) pyridine-2-carbonitrile] | ≤ 500 nM |  |  |
| N#Cc1cc(Oc2ccc(Nc3cc(-c4ccsc4)nc(N)n3)cc2)ccn1 [Example 251, 4-(4-{[2-amino-6-(3-thienyl)pyrimidin-4-yl]amino}phenoxy) pyridine-2-carbonitrile] | ≤ 500 nM |  |  |
| Cc1ccc(-c2cc(Nc3ccc(Oc4ccnc(C#N)c4)cc3)nc(N)n2)cc1N [Example 252, 4-(4-{[2-amino-6-(3-amino-4-methylphenyl)pyrimidin-4-yl]amino}phenoxy)pyridine-2-carbonitrile] | ≤ 500 nM |  |  |
| N#Cc1cc(Oc2ccc(Nc3cc(-c4ccc(Cl)c(Cl)c4)nc(N)n3)cc2)ccn1 [Example 253, 4-(4-{[2-amino-6-(3,4-dichlorophenyl)pyrimidin-4-yl]amino}phenoxy)pyridine-2-carbonitrile] |  |  | IC50 (greater than 2 μM): > 2000 nM |
| NC(=O)c1cc(Oc2ccc(Nc3cc(-c4cccc(N)c4)nc(N)n3)cc2)ccn1 [Example 254, 4-(4-{[2-amino-6-(3-aminophenyl)pyrimidin-4-yl]amino}phenoxy) pyridine-2-carboxamide] | ≤ 500 nM |  |  |
| NC(=O)c1cc(Oc2ccc(Nc3cc(-c4cccs4)nc(N)n3)cc2)ccn1 [Example 255, 4-(4-{[2-amino-6-(2-thienyl)pyrimidin-4-yl]amino}phenoxy) pyridine-2-carboxamide] |  |  | IC50 (greater than 2 μM): > 2000 nM |
| NC(=O)c1cc(Oc2ccc(Nc3cc(-c4cccc(F)c4)nc(N)n3)cc2)ccn1 [Example 256, 4-(4-{[2-amino-6-(3-fluorophenyl)pyrimidin-4-yl]amino}phenoxy) pyridine-2-carboxamide] |  | 500 to 2000 nM |  |
| NC(=O)c1cc(Oc2ccc(Nc3cc(-c4ccc(Cl)cc4)nc(N)n3)cc2)ccn1 [Example 257, 4-(4-{[2-amino-6-(4-chlorophenyl)pyrimidin-4-yl]amino}phenoxy) pyridine-2-carboxamide] |  | 500 to 2000 nM |  |
| NC(=O)c1cc(Oc2ccc(Nc3cc(-c4cccc(C(F)(F)F)c4)nc(N)n3)cc2)ccn1 [Example 258, 4-[4-({2-amino-6-[3-(trifluoromethyl)phenyl]pyrimidin-4-yl}amino)phenoxy]pyridine-2-carboxamide] |  | 500 to 2000 nM |  |
| CCCCc1ccc(-c2cc(Nc3ccc(Oc4ccnc(C(N)=O)c4)cc3)nc(N)n2)cc1 [Example 259, 4-(4-{[2-amino-6-(4-butylphenyl)pyrimidin-4-yl]amino}phenoxy) pyridine-2-carboxamide] | ≤ 500 nM |  |  |
| NC(=O)c1cc(Oc2ccc(Nc3cc(-c4ccc(-c5ccccc5)c(F)c4)nc(N)n3)cc2)ccn1 [Example 260, 4-(4-{[2-amino-6-(2-fluorobiphenyl-4-yl)pyrimidin-4-yl]amino}phenoxy) pyridine-2-carboxamide] |  |  | IC50 (greater than 2 μM): > 2000 nM |
| CCc1cccc(-c2cc(Nc3ccc(Oc4ccnc(C(N)=O)c4)cc3)nc(N)n2)c1 [Example 261, 4-(4-{[2-amino-6-(3-ethylphenyl)pyrimidin-4-yl]amino}phenoxy) pyridine-2-carboxamide] | ≤ 500 nM |  |  |
| COc1ccc(C(C)C)cc1-c1cc(Nc2ccc(Oc3ccnc(C(N)=O)c3)cc2)nc(N)n1 [Example 262, 4-(4-{[2-amino-6-(5-isopropyl-2-methoxyphenyl)pyrimidin-4-yl]amino}phenoxy)pyridine-2-carboxamide] | ≤ 500 nM |  |  |
| Cc1ccccc1-c1cc(Nc2ccc(Oc3ccnc(C(N)=O)c3)cc2)nc(N)n1 [Example 263, 4-(4-{[2-amino-6-(2-methylphenyl)pyrimidin-4-yl]amino}phenoxy) pyridine-2-carboxamide] | ≤ 500 nM |  |  |
| NC(=O)c1cc(Oc2ccc(Nc3cc(-c4ccc(F)cc4F)nc(N)n3)cc2)ccn1 [Example 264, 4-(4-{[2-amino-6-(2,4-difluorophenyl)pyrimidin-4-yl]amino}phenoxy)pyridine-2-carboxamide] | ≤ 500 nM |  |  |
